From patent publication US20220273748A1, “PLANT FERMENT AND WEIGHT LOSS METHOD FOR USING THE SAME” (TCI CO., LTD., priority 2021, published 2022)
Like-named read-outs stand apart in the source and are kept apart here.

Key:
PYY gene = experiment: Expression level of PYY gene in NCI-H716 cells (qRT-PCR); format: cell-based; conditions: Homo sapiens, read-out: expression level of the PYY gene relative to the blank group
Method: Herein, the expression level of the gene (Gene ID: 5697) of the peptide tyrosine-tyrosine (PPY) protein in human colorectal adenocarcinoma NCI-H716 cells (purchased from the Bioresource Collection and Research Center (BCRC), number 60517; hereinafter referred to as NCI-H716 cells) treated with each of the compounds TCI-LTF-01, TCI-LTF-02, TCI-LTF-04, TCI-LTF-08, TCI-LTF-09, TCI-LTF-10, TCI-LTF-11, TCI-LTF-12, and TCI-LTF-14 that were identified in Example 7 was determined by using the RNA extraction kit, SuperScript® III Reverse Transcriptase, KAPA SYBR®FAST qPCR reagent kit, and quantitative PCR machine.
A cell culture medium used is a solution containing 20% of fetal bovine serum (FBS, purchased from Gibco, number 10438-026, US), 1% of antibiotic-antimycotic (purchased from Gibco, number 15240-062), 10 mM of HEPES buffer (purchased from Gibco, number 15630080), and 1 mM of sodium pyruvate (purchased from Gibco, number 11360070). The compounds TCI-LTF-01, TCI-LTF-02, TCI-LTF-04, TCI-LTF-08, TCI-LTF-09, TCI-LTF-10, TCI-LTF-11, TCI-LTF-12, and TCI-LTF-14 each was formulated into 100 mM of stock sample with the DMSO solvent.
First, the NCI-H716 cells were inoculated into a 6-well culture plate containing 2 mL of culture medium in a density of 1×10^5 cells per well, and cultured at 37° C. for 24 h. Next, the NCI-H716 cells were divided into a blank group and 9 experimental groups. Then, the cell culture medium in each group was replaced with 2 mL of experimental culture medium per well, and then cultured at 37° C. for 12 h. The experimental culture medium in the blank group was a cell culture medium with no treatment (that is, no additional compounds were added into the cell culture medium). The experimental culture medium in each of the 9 experimental groups was a cell culture medium containing […] of corresponding compound identified in Example 7, and the 9 compounds were: syringin (TCI-LTF-01), 1,5-di-o-caffroylquinic acid (TCI-LTF-02), luteolin (TCI-LTF-04), chlorogenic acid (TCI-LTF-08), dihydrocaffeic acid (TCI-LTF-09), caffeic acid (TCI-LTF-10), 4-hyderoxy-3-phenlylactic acid methyl ester (TCI-LTF-11), calceolarioside B (TCI-LTF-12), and 4-hydroxyphenolic acid (TCI-LTF-14). Herein, each of the 9 compounds was first formulated into 100 mM of stock sample with the DMSO solvent, and then added into the cell culture medium to give a final concentration of 100 μM in the cell culture medium. Each group was repeated for three times.
The cell membranes of the NCI-H716 cells treated in each group were broken with a cell lysis buffer to form a cell solution. Next, RNA of the 10 groups of cell solutions was extracted separately by using an RNA extraction reagent kit (purchased from Geneaid, Taiwan, Lot No. FC24015-G). Then, 1000 ng of the extracted RNA in each group was used as a template, and the extracted RNA was reverse transcribed into corresponding cDNA by the SuperScript® III reverse transcriptase (purchased from Invitrogene, USA, number 18080-051). Subsequently, the quantitative real-time reverse transcription polymerase chain reaction was carried out on the 10 groups of cDNA with the primers (SEQ ID NO: 15 to SEQ ID NO: 16) in Table 4 by using the ABI StepOnePlus™ Real-Time PCR system (Thermo Fisher Scientific, USA) and the KAPA SYBR FAST (purchased from Sigma, USA, number 38220000000) to observe the expression level of the PPY gene in the NCI-H716 cells in the 10 groups. The instrument setting conditions for the quantitative real-time reverse transcription polymerase chain reaction were 95° C. for 20 s, 95° C. for 3 s, 60° C. for 30 s, a total of 40 cycles, and gene quantification was carried out by the 2^−ΔCt method (using the m-ACTB gene as an internal reference gene). Herein, the quantitative real-time reverse transcription polymerase chain reaction with cDNA can indirectly quantify the expression level of the PYY protein encoded by the PPY gene. […]

[1] = tested on: OP9 cells differentiated into fat cells; experiment: Inhibition of lipid droplet accumulation in fat cells differentiated from OP9 cells (glycerol cell-based assay), isolated compounds; set-up: species or system mouse; conditions: final concentration 100 μM, 7 days, blank group = 100%
Source text: Herein, the content of glycerol in fat cells is used as a quantitative indicator to observe whether there is lipolysis.
A cell culture medium used is the α-minimum essential medium (α-MEM, Gibco, number 12000-022) containing 20% of fetal bovine serum (FBS. Gibco, number 10438-026) and 1% of antibiotic-antimycotic (Gibco, number 15240-062).
First, 8×10^4 OP9 cells (purchased from the American Type Culture Collection, ATCC®, number ATCC CRL-2749) were inoculated into a 24-well culture plate containing 500 μL of cell culture medium per well, and cultured at 37° C. for 7 days. During the 7-day cell culture, the cell culture medium was changed every 3 days. After the 7 days of culture, the formation of lipid droplets in the OP9 cells was observed by using a microscope (ZEISS; magnification 400×) to confirm that the OP9 cells were fully differentiated into fat cells for subsequent experiments.
Then, the differentiated fat cells were divided into a blank group and 5 experimental groups. The cell culture medium in each group was replaced with 500 μL of experimental medium per well, and then cultured at 37° C. for 7 days. During the 7-day culture, the experimental medium was replaced with a fresh 500 μL one every 3 days. The experimental culture medium in the blank group was just a cell culture medium (without other compounds), while the experimental culture medium in each of the 5 experimental group was a cell culture medium containing […] of corresponding compound identified in Example 7, and the 5 compounds were: syringin (TCI-LTF-01), 1,5-di-o-caffroylquinic acid (TCI-LTF-02), quercetin-3-glucuronide (TCI-LTF-03), gallic acid (TCI-LTF-06), and chlorogenic acid (TCI-LTF-08). […]
The content of glycerol was determined by using a glycerol cell-based assay kit (purchased from Cayman, USA, product number 10011725) according to the following steps. The experimental culture medium (that is, the experimental culture medium in which fat cells had been cultured, without the fat cells) in each group was collected, 25 μL of the experimental culture medium was transferred into a new 96-well culture plate, 100 μL of reconstituted free glycerol assay reagent was added into each well to react at room temperature for 15 min, and the absorbance OD540 nm of each group was read from the 96-well culture plate by an ELISA reader, to quantify the content of glycerol released into the experimental culture medium through lipolysis, as shown in FIG. 31. […] The obtained results were analyzed by student t-test using Excel software to determine whether there is a statistically significant difference between two sample groups. […]

[2] = NCI-H716 cells, final concentration 100 μM, 12 h, blank group = 1.0

Row | Structure (SMILES) | fold induction at 100 µM (PYY gene; NCI-H716, 12 h) | lipid droplet content [1] [%] | fold induction at 100 µM (PYY gene; [2])
1 | COc1cc(/C=C/CO)cc(OC)c1O[C@@H]1O[C@H](CO)[C@@H](O)[C@H](O)[C@H]1O [TCI-LTF-01, Syringin] | 6.2 | 64.8 | –
2 | O=C(O)c1ccc(O)cc1 [TCI-LTF-14, 4-Hydroxyphenolic acid] | – | – | 3.6
3 | COC(=O)C(O)Cc1ccc(O)cc1 (stereo not shown) [TCI-LTF-11, 4-Hyderoxy-3-phenlylactic acid methyl ester] | – | – | 4.5
4 | O=C(/C=C/c1ccc(O)c(O)c1)OC[C@H]1O[C@@H](OCCc2ccc(O)c(O)c2)[C@H](O)[C@@H](O)[C@@H]1O [TCI-LTF-12, Calceolarioside B] | – | – | 5.6
5 | O=C(O)c1cc(O)c(O)c(O)c1 [TCI-LTF-06, Gallic acid] | – | 72.4 | –
6 | O=c1cc(-c2ccc(O)c(O)c2)oc2cc(O)cc(O)c12 [TCI-LTF-04, Luteolin] | – | – | 3.6
7 | O=C(/C=C/c1ccc(O)c(O)c1)O[C@@H]1C[C@](O)(C(=O)O)C[C@@H](O)[C@H]1O [TCI-LTF-08, Chlorogenic acid] | – | 69.3 | 5.3
8 | O=C(O)/C=C/c1ccc(O)c(O)c1 [TCI-LTF-10, Caffeic acid] | – | – | 3.5
9 | O=C(O)CCc1ccc(O)c(O)c1 [TCI-LTF-09, Dihydrocaffeic acid] | – | – | 4.9
10 | O=C(/C=C/c1ccc(O)c(O)c1)O[C@@H]1C[C@](OC(=O)/C=C/c2ccc(O)c(O)c2)(C(=O)O)C[C@@H](O)[C@H]1O [TCI-LTF-02, 1,5-Di-O-caffroylquinic acid] | – | 75.2 | 2.3
